Assay results: ChEMBL document CHEMBL1201862, “PubChem BioAssay data set” (2004)
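These data come from cells grown in 96-well plates and exposed to compound for 48 hours at five concentrations. At the GI50, growth is halved.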 The source made the active and inactive calls. Cut-off read from the data, not from the text of the source: active = GI50 up to about 1.1 µM and inactive = higher.

Assays:
Experiment in all cases: NCI tumour cell line growth inhibition, 48 h
Malme-3M = test system: Malme-3M
SN12C = test system: SN12C
HCT-15 = test system: HCT-15
SW-620 = test system: SW-620
SF-295 = test system: SF-295
SF-268 = test system: SF-268
NCI-H522 = test system: NCI-H522
SNB-75 = test system: SNB-75
TK-10 = test system: TK-10
MOLT-4 = test system: MOLT-4
SF-539 = test system: SF-539
EKVX = test system: EKVX
U-251 = test system: U-251
HCT-116 = test system: HCT-116
NCI-H23 = test system: NCI-H23
HOP-62 = test system: HOP-62
LOX IMVI = test system: LOX IMVI
HOP-92 = test system: HOP-92
HT-29 = test system: HT-29

SMILES: COc1ccc2c(c1)c(=O)c1c(NCCN(C)C)ccc3c(=O)n(CCN(C)C)c(=O)n2c31
- GI50 (Malme-3M): 0.29 µM (active)
- GI50 (SN12C): 0.0298 µM (active)
- GI50 (HCT-15): < 0.0223 µM
- GI50 (SW-620): < 0.0105 µM (active)
- GI50 (SF-295): 0.0853 µM (active)
- GI50 (SF-268): 0.114 µM (active)
- GI50 (NCI-H522): 0.0762 µM (active)
- GI50 (SNB-75): 0.173 µM (active)
- GI50 (TK-10): 0.141 µM (active)
- GI50 (MOLT-4): < 0.01 µM (active)
- GI50 (SF-539): 0.0376 µM (active)
- GI50 (EKVX): 0.124 µM (active)
- GI50 (U-251): 0.0783 µM (active)
- GI50 (HCT-116): < 0.014 µM (active)
- GI50 (NCI-H23): 0.11 µM (active)
- GI50 (HOP-62): 0.0711 µM (active)
- GI50 (LOX IMVI): 0.104 µM (active)
- GI50 (HOP-92): 0.0483 µM (active)
- GI50 (HT-29): 0.0197 µM (active)

SMILES: CC1SC2=NC3=C(c4ccccc4C3=O)C(c3ccc(Br)cc3)N2C1=O (centres undefined)
- GI50 (Malme-3M): 44.3 µM (inactive)
- GI50 (SN12C): 37.8 µM (inactive)
- GI50 (HCT-15): 52.2 µM
- GI50 (SW-620): 51.9 µM (inactive)
- GI50 (SF-295): 56.9 µM (inactive)
- GI50 (SF-268): 37.9 µM (inactive)
- GI50 (NCI-H522): 19.3 µM (inactive)
- GI50 (SNB-75): 24.5 µM (inactive)
- GI50 (TK-10): > 100 µM (inactive)
- GI50 (MOLT-4): 31.6 µM (inactive)
- GI50 (EKVX): 60 µM (inactive)
- GI50 (U-251): 35.5 µM (inactive)
- GI50 (NCI-H23): 40.8 µM (inactive)
- GI50 (HOP-62): > 100 µM (inactive)
- GI50 (HOP-92): 29 µM (inactive)
- GI50 (HT-29): > 100 µM (inactive)

SMILES: N[C@H]1CCc2c1nc1c(c2-c2ccccc2)CC[C@@H]1N
- GI50 (Malme-3M): 16.7 µM (inactive)
- GI50 (SN12C): 44.1 µM (inactive)
- GI50 (HCT-15): 34.4 µM
- GI50 (SW-620): 12.3 µM (inactive)
- GI50 (SF-295): 18.5 µM (inactive)
- GI50 (SF-268): 18.1 µM (inactive)
- GI50 (NCI-H522): 16.2 µM (inactive)
- GI50 (SNB-75): 11.9 µM (inactive)
- GI50 (TK-10): 28.3 µM (inactive)
- GI50 (MOLT-4): 8.73 µM (inactive)
- GI50 (SF-539): 16.1 µM (inactive)
- GI50 (EKVX): > 100 µM (inactive)
- GI50 (U-251): 20.5 µM (inactive)
- GI50 (HCT-116): 18.1 µM (inactive)
- GI50 (NCI-H23): 25.2 µM (inactive)
- GI50 (HOP-62): 31.7 µM (inactive)
- GI50 (LOX IMVI): 14 µM (inactive)
- GI50 (HOP-92): 21.3 µM (inactive)
- GI50 (HT-29): 11.9 µM (inactive)

SMILES: O=C1CN(c2cccc(C(F)(F)F)c2)C(=O)CN1CCN1CC(=O)N(c2cccc(C(F)(F)F)c2)CC1=O
- GI50 (SN12C): > 100 µM (inactive)
- GI50 (HCT-15): > 100 µM
- GI50 (SW-620): > 100 µM (inactive)
- GI50 (SF-295): > 100 µM (inactive)
- GI50 (SF-268): > 100 µM (inactive)
- GI50 (NCI-H522): > 100 µM (inactive)
- GI50 (SNB-75): > 100 µM (inactive)
- GI50 (TK-10): > 100 µM (inactive)
- GI50 (MOLT-4): > 100 µM (inactive)
- GI50 (SF-539): > 100 µM (inactive)
- GI50 (EKVX): > 100 µM (inactive)
- GI50 (U-251): > 100 µM (inactive)
- GI50 (HCT-116): > 100 µM (inactive)
- GI50 (HOP-62): > 100 µM (inactive)
- GI50 (HT-29): > 100 µM (inactive)

SMILES: O=C(OCc1ccccc1)N1CCN(C(=O)OCc2ccccc2)CCN(C(=O)OCc2ccccc2)CCN(C(=O)OCc2ccccc2)CCN(C(=O)OCc2ccccc2)CC1
- GI50 (Malme-3M): 24.4 µM (inactive)
- GI50 (SN12C): > 100 µM (inactive)
- GI50 (HCT-15): 46.8 µM
- GI50 (SW-620): > 100 µM (inactive)
- GI50 (SF-295): > 100 µM (inactive)
- GI50 (NCI-H522): 68.2 µM (inactive)
- GI50 (SNB-75): 30.9 µM (inactive)
- GI50 (TK-10): 46.6 µM (inactive)
- GI50 (MOLT-4): > 100 µM (inactive)
- GI50 (SF-539): 28.3 µM (inactive)
- GI50 (EKVX): > 100 µM (inactive)
- GI50 (U-251): 76.7 µM (inactive)
- GI50 (HCT-116): > 100 µM (inactive)
- GI50 (HOP-62): 65 µM (inactive)
- GI50 (LOX IMVI): 80 µM (inactive)
- GI50 (HOP-92): 70.5 µM (inactive)

SMILES: Cc1ccc(S(=O)(=O)N(CC(O)COc2ccccc2)c2c(F)c(F)cc(F)c2F)cc1 (centres undefined)
- GI50 (Malme-3M): 23.1 µM (inactive)
- GI50 (SN12C): 22.5 µM (inactive)
- GI50 (HCT-15): 20.9 µM
- GI50 (SW-620): 30.3 µM (inactive)
- GI50 (SF-295): 24 µM (inactive)
- GI50 (SF-268): 18.7 µM (inactive)
- GI50 (SNB-75): 20.5 µM (inactive)
- GI50 (TK-10): 32.9 µM (inactive)
- GI50 (MOLT-4): < 0.01 µM (active)
- GI50 (SF-539): 20 µM (inactive)
- GI50 (EKVX): 27.9 µM (inactive)
- GI50 (U-251): 21 µM (inactive)
- GI50 (HCT-116): 37 µM (inactive)
- GI50 (NCI-H23): 18.8 µM (inactive)
- GI50 (HOP-62): 21.3 µM (inactive)
- GI50 (LOX IMVI): 16.6 µM (inactive)
- GI50 (HOP-92): 11.7 µM (inactive)
- GI50 (HT-29): 16.8 µM (inactive)

SMILES: C=C1C[C@]23CC[C@@H]4C(CO)(CO)CC(=O)C[C@]4(C)[C@@H]2C(O)C[C@H]1C3 (some centres undefined)
- GI50 (Malme-3M): > 100 µM (inactive)
- GI50 (SN12C): > 100 µM (inactive)
- GI50 (HCT-15): > 100 µM
- GI50 (SW-620): > 100 µM (inactive)
- GI50 (SF-295): > 100 µM (inactive)
- GI50 (SF-268): > 100 µM (inactive)
- GI50 (NCI-H522): > 100 µM (inactive)
- GI50 (SNB-75): > 100 µM (inactive)
- GI50 (TK-10): > 100 µM (inactive)
- GI50 (MOLT-4): > 100 µM (inactive)
- GI50 (SF-539): > 100 µM (inactive)
- GI50 (EKVX): > 100 µM (inactive)
- GI50 (U-251): > 100 µM (inactive)
- GI50 (HCT-116): > 100 µM (inactive)
- GI50 (NCI-H23): > 100 µM (inactive)
- GI50 (HOP-62): > 100 µM (inactive)
- GI50 (LOX IMVI): > 100 µM (inactive)
- GI50 (HOP-92): > 100 µM (inactive)
- GI50 (HT-29): > 100 µM (inactive)

SMILES: C#CCC(N)(CO)C(=O)O (centres undefined)
- GI50 (Malme-3M): > 100 µM (inactive)
- GI50 (HCT-15): > 100 µM
- GI50 (SW-620): > 100 µM (inactive)
- GI50 (SF-295): > 100 µM (inactive)
- GI50 (SF-268): > 100 µM (inactive)
- GI50 (NCI-H522): > 100 µM (inactive)
- GI50 (SNB-75): 82.6 µM (inactive)
- GI50 (TK-10): > 100 µM (inactive)
- GI50 (MOLT-4): > 100 µM (inactive)
- GI50 (SF-539): > 100 µM (inactive)
- GI50 (EKVX): > 100 µM (inactive)
- GI50 (U-251): > 100 µM (inactive)
- GI50 (HCT-116): > 100 µM (inactive)
- GI50 (NCI-H23): > 100 µM (inactive)
- GI50 (HOP-62): > 100 µM (inactive)
- GI50 (LOX IMVI): > 100 µM (inactive)
- GI50 (HOP-92): > 100 µM (inactive)
- GI50 (HT-29): > 100 µM (inactive)

SMILES: COCC(OC)C(CC=C(C#N)C#N)OC (centres undefined)
- GI50 (Malme-3M): > 100 µM (inactive)
- GI50 (SN12C): > 100 µM (inactive)
- GI50 (HCT-15): > 100 µM
- GI50 (SW-620): > 100 µM (inactive)
- GI50 (SF-295): > 100 µM (inactive)
- GI50 (SF-268): > 100 µM (inactive)
- GI50 (NCI-H522): > 100 µM (inactive)
- GI50 (TK-10): > 100 µM (inactive)
- GI50 (MOLT-4): > 100 µM (inactive)
- GI50 (SF-539): > 100 µM (inactive)
- GI50 (EKVX): > 100 µM (inactive)
- GI50 (U-251): > 100 µM (inactive)
- GI50 (HCT-116): > 100 µM (inactive)
- GI50 (NCI-H23): > 100 µM (inactive)
- GI50 (HOP-62): > 100 µM (inactive)
- GI50 (LOX IMVI): > 100 µM (inactive)
- GI50 (HOP-92): > 100 µM (inactive)
- GI50 (HT-29): > 100 µM (inactive)

SMILES: CC(=O)O[C@H]1C(=O)[C@@]2(C)C(C(OC(=O)c3ccccc3)[C@]3(O)CC(OC(=O)C(O)C(NC(=O)c4ccccc4)c4cccc(Cl)c4)C(C)=C1C3(C)C)[C@]1(OC(C)=O)CO[C@@H]1C[C@@H]2O (some centres undefined)
- GI50 (Malme-3M): > 10 µM (inactive)
- GI50 (SN12C): 4.17 µM (inactive)
- GI50 (HCT-15): > 10 µM
- GI50 (SW-620): 6.47 µM (inactive)
- GI50 (SF-295): > 10 µM (inactive)
- GI50 (SF-268): 7.26 µM (inactive)
- GI50 (NCI-H522): 3.18 µM (inactive)
- GI50 (SNB-75): 2.62 µM (inactive)
- GI50 (TK-10): > 10 µM (inactive)
- GI50 (MOLT-4): 4.8 µM (inactive)
- GI50 (SF-539): 3.24 µM (inactive)
- GI50 (EKVX): 7.23 µM (inactive)
- GI50 (U-251): 4.95 µM (inactive)
- GI50 (HCT-116): 2.88 µM (inactive)
- GI50 (NCI-H23): 4.39 µM (inactive)
- GI50 (HOP-62): 7.01 µM (inactive)
- GI50 (LOX IMVI): 4.29 µM (inactive)
- GI50 (HT-29): 2.46 µM (inactive)

SMILES: N#Cc1ccc(/C=[N+](/C=c2ccc(=C=[N-])cc2)N(CCO)C2=NCCN2)cc1
- GI50 (Malme-3M): > 100 µM (inactive)
- GI50 (SN12C): > 100 µM (inactive)
- GI50 (HCT-15): > 100 µM
- GI50 (SW-620): > 100 µM (inactive)
- GI50 (SF-295): > 100 µM (inactive)
- GI50 (SF-268): > 100 µM (inactive)
- GI50 (NCI-H522): 71 µM (inactive)
- GI50 (SNB-75): > 100 µM (inactive)
- GI50 (TK-10): > 100 µM (inactive)
- GI50 (MOLT-4): > 100 µM (inactive)
- GI50 (SF-539): > 100 µM (inactive)
- GI50 (EKVX): > 100 µM (inactive)
- GI50 (U-251): > 100 µM (inactive)
- GI50 (HCT-116): > 100 µM (inactive)
- GI50 (NCI-H23): > 100 µM (inactive)
- GI50 (HOP-62): > 100 µM (inactive)
- GI50 (LOX IMVI): > 100 µM (inactive)
- GI50 (HT-29): > 100 µM (inactive)
